Test results reported in ChEMBL document CHEMBL1142680, “Improving specificity vs bacterial thymidylate synthases through N-dansyl modulation of didansyltyrosine” (J Med Chem, 2005).

Experiments:
Thymidylate synthase [1] = target: T1, Thymidylate synthase (Lactobacillus casei, UniProt P00469); experiment: Inhibitory constant against thymidylate synthase from Lactobacillus casei; parameters: species or system Lacticaseibacillus casei
T1 sequence (P00469 whole entry): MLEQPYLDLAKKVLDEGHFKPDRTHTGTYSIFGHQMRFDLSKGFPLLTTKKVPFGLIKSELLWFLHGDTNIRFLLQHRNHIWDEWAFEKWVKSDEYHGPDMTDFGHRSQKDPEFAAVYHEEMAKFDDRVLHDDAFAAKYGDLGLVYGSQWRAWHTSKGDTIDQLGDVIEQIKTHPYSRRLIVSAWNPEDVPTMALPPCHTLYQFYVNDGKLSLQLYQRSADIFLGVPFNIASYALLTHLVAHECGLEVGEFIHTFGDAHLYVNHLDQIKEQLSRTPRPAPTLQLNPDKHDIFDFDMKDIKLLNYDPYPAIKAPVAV

Thymidylate synthase [2] = target: Thymidylate synthase (Escherichia coli, UniProt C3SWJ7); experiment: Inhibitory constant against thymidylate synthase from Escherichia coli
Thymidylate synthase (Escherichia coli, UniProt C3SWJ7), sequence (C3SWJ7 whole entry): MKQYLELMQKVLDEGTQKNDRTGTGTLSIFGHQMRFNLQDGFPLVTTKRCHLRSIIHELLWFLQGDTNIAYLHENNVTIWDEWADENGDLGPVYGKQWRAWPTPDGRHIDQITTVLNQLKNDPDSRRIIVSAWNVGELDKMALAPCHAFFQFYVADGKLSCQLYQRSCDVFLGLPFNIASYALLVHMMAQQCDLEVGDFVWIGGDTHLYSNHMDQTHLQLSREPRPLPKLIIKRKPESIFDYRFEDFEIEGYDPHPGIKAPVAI

| Ki (Thymidylate synthase [1]) | Ki (Thymidylate synthase [2]) | SMILES |
| --- | --- | --- |
| 1.6 µM | 15 µM | CN(C)c1cccc2c(S(=O)(=O)Oc3ccc(C[C@H](NS(=O)(=O)c4cc5nnoc5c5ccccc45)C(=O)O)cc3)cccc12 |
| 0.1 µM | 9.4 µM | CN(C)c1cccc2c(S(=O)(=O)Oc3ccc(C[C@H](NS(=O)(=O)c4cccc5c(NC(=O)OCc6ccccc6)cccc45)C(=O)O)cc3)cccc12 |
| 1.7 µM | 1.5 µM | CN(C)c1cccc2c(S(=O)(=O)Oc3ccc(C[C@H](NS(=O)(=O)c4ccc(NC(=O)OCc5ccccc5)c5ccccc45)C(=O)O)cc3)cccc12 |
| 0.3 µM | 0.3 µM | CN(C)c1cccc2c(S(=O)(=O)Oc3ccc(C[C@H](NS(=O)(=O)c4cccc5cc([N+](=O)[O-])ccc45)C(=O)O)cc3)cccc12 |
| 1.4 µM | 1.8 µM | CN(C)c1cccc2c(S(=O)(=O)N[C@@H](Cc3ccc(OS(=O)(=O)c4cccc5c(N(C)C)cccc45)cc3)C(=O)O)cccc12 |
| 0.5 µM | 0.3 µM | CN(C)c1cccc2c(S(=O)(=O)Oc3ccc(C[C@H](NS(=O)(=O)c4cccc5cc(N)ccc45)C(=O)O)cc3)cccc12 |
